“Also recorded” adds a separate entry of the source. Structures can show the parent of a compound that is named as a salt. Where two headings read alike, the source gives them in different places.
Assays:
[1] = Vemurafenib pharmacokinetics in huPXR/huCAR/huCYP3A4/3A7 mice; assay type: in vivo, mouse; details: for AUC: AUCall of vemurafenib
Cyp2b = assay: Western blot of hepatic microsomal Cyp2b; assay type: in vivo, mouse; details: huPXR/huCAR/huCYP3A4/3A7 mice
CYP3A4 [2] = test system: CYP3A4
[3] = assay type: in vivo, mouse
SLCO1B1 = details: cited from earlier work
[4] = test system: OH-vemurafenib formation in pooled HLM; assay: Inhibition of OH-vemurafenib formation in pooled HLM by CYP inhibitors; assay type: in vitro ADME, human; details: pooled HLM 0.2 mg/mL, 60 μM vemurafenib, 10 min; 1 μM ketoconazole, 2 μM sulfaphenazole
Abcb1a = assay: TaqMan RT-PCR of small intestinal Abcb1a mRNA; assay type: in vivo, mouse
Abcb1b = assay: TaqMan RT-PCR of small intestinal Abcb1b mRNA; assay type: in vivo, mouse
Abcg2 = assay: TaqMan RT-PCR of small intestinal Abcg2 mRNA; assay type: in vivo, mouse; details: huPXR/huCAR/huCYP3A4/3A7 mice treated with RIF
[5] = Microsomal stability in pooled human liver microsomes; assay type: in vitro ADME; details: 1 μM, 0.2 mg/mL pooled HLM, presence and absence of NADPH, up to 50 min
[6] = Apparent kinetics of OH-vemurafenib formation in HLM; assay type: in vitro ADME, human
[7] = Apparent kinetics of OH-vemurafenib formation in MLM; assay type: in vitro ADME, mouse; details: Hill equation fit
CYP3A4 [8] = target: T1, CYP3A4 (Homo sapiens, UniProt P08684); assay: biochemical
Target sequence in this assay (P08684 2-503): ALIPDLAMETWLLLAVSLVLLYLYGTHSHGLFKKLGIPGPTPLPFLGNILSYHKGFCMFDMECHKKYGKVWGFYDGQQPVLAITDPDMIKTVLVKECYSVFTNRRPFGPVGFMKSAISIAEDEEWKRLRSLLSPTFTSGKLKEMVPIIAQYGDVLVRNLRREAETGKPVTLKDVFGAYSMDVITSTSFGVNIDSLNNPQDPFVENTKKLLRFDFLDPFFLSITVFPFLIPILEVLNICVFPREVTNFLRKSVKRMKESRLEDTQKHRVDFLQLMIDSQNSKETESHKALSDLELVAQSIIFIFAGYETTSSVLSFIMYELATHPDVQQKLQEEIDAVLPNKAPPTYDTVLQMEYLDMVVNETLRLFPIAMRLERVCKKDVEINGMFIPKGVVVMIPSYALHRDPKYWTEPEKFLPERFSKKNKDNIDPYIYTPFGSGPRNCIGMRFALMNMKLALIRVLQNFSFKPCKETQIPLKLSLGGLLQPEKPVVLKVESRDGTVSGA

DPX2 cells = assay: Toxicity in DPX2 cells in the PXR-transactivation assay; assay type: cell-based; details: top two concentrations (41.67 and 125 μM), 48 hours
[9] = Vemurafenib pharmacokinetics in huPXR/huCAR mice; assay type: in vivo; details: male, mouse, whole blood, po, 50 mg/kg, AUCall of vemurafenib, RIF pre-treatment, Figure 3A
CYP3A4 [10] = assay: TaqMan RT-PCR of small intestinal CYP3A4 mRNA; assay type: in vivo, mouse; details: MBP vemurafenib 100 mg/kg b.i.d. four days
Cyp1a = assay: Western blot of hepatic microsomal Cyp1a; assay type: in vivo, mouse; details: huPXR/huCAR/huCYP3A4/3A7 mice, MBP vemurafenib 100 mg/kg b.i.d. four days
[11] = assay type: in vivo; details: huPXR/huCAR/huCYP3A4/3A7, mouse, whole blood, po, 100 mg/kg
CYP3A4 [12] = target: T1, CYP3A4
Target sequence in this assay (P08684 whole entry): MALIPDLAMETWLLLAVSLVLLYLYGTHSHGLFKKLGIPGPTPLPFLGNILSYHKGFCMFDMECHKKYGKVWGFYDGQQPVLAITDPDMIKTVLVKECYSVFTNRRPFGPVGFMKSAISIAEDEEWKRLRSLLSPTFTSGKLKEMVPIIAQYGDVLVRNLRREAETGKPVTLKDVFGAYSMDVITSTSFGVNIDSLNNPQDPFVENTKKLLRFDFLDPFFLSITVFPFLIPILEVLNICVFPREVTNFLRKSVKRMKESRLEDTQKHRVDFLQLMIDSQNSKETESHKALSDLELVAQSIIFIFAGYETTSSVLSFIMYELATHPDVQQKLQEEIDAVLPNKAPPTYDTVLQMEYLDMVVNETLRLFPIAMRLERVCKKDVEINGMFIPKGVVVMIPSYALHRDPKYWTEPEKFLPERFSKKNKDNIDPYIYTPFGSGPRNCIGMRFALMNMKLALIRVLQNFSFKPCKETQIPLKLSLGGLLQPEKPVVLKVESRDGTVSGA

CYP2C9 [13] = target: T2, CYP2C9 (Homo sapiens, UniProt P11712); details: 60 μM compound, 400 pmol/mL enzyme, 15 min
COLO205 xenografts = details: cited from earlier work
[14] = read-out: Cmax (mean) in patients at steady state; cited from earlier work
[15] = test system: BRAF^V600E-positive metastatic melanoma; details: single agent, all patients with BRAF V600E-positive metastatic melanoma; cited from earlier work
[16] = cited from earlier work
CYP3A4 [17] = details: patients at steady state; cited from earlier work
CYP1A2 = details: patients at steady state; cited from earlier work
CYP2D6 = details: patients at steady state; cited from earlier work
[18] = crystalline form, physiological pH; cited from earlier work
ABCB1 = details: MDCK-ABCB1 cell line; cited from earlier work
CYP2C9 [19] = target: T2, CYP2C9; assay: in vitro; details: recombinant CYP2C9, pH 7.4
PXR = target: T3, PXR (Homo sapiens, UniProt O75469); assay: PXR-transactivation assay in DPX2 cells
T3 sequence (O75469 1-434): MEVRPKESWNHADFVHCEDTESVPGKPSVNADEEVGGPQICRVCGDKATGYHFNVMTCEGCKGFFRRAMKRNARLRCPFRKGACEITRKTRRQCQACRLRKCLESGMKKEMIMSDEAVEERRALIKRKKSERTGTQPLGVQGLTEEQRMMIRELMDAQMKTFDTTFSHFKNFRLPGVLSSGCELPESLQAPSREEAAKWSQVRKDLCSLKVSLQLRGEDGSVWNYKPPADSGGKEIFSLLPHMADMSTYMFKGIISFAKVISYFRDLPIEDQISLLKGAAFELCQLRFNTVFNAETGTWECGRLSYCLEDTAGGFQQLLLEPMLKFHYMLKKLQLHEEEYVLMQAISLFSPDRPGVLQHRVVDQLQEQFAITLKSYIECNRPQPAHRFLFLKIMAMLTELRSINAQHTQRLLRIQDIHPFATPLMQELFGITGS

[20] = huPXR/huCAR/huCYP3A4/3A7 mice treated with RIF
[21] = MBP vemurafenib 100 mg/kg b.i.d. four days

T2 sequence (P11712 whole entry): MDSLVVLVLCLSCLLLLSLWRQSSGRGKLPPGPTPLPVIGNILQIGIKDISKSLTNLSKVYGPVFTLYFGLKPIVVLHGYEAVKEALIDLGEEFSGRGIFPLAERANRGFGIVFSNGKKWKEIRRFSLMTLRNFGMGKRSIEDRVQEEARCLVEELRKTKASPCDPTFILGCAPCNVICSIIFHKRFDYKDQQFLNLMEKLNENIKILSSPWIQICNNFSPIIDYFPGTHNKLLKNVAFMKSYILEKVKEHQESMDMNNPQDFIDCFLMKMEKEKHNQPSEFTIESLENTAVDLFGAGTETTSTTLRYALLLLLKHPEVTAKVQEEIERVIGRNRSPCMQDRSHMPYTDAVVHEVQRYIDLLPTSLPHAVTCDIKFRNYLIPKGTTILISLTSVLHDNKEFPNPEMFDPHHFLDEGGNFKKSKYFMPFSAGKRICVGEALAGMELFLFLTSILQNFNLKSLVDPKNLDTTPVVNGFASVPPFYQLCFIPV

Compound: CCC1(c2ccccc2)C(=O)NC(=O)NC1=O [PB, Phenobarbital]
- Effect of PB pre-treatment on vemurafenib kinetic parameters ([1]; PB 80 mg/kg i.p. for three days, huPXR/huCAR/huCYP3A4/3A7 mice): no effect
- Hepatic Cyp2b / Cyp2b10 protein (Western blot) (Cyp2b): induction
- Hepatic CYP3A4 protein (Western blot) (CYP3A4 [2]; mouse, in vivo): weakly inducing

Compound: CC(=O)[C@H]1[C@H](C#N)C[C@H]2[C@@H]3CC=C4C[C@@H](O)CC[C@]4(C)[C@H]3CC[C@@]21C [PCN, 5-pregnenolone-3β-ol-20-one-16α-carbonitrile]
- Effect of PCN pre-treatment on vemurafenib clearance ([3]; PCN 10 mg/kg i.p. three days, Cyp3a null and huCYP3A4/3A7 animals): enhanced clearance equally well
- Hepatic CYP3A4 protein (Western blot) (CYP3A4 [2]; huCYP3A4/3A7 mice, PCN three days): effectively induced

Compound: COc1cc2c(cc1OC)CN(CCc1ccc(NC(=O)c3cccc4c(=O)c5cccc(OC)c5[nH]c34)cc1)CC2 [elacridar, Elacridar hydrochloride]
- Inhibition of SLCO1B1 (SLCO1B1): known to inhibit

Compound: CC(=O)N1CCN(c2ccc(OCC3COC(Cn4ccnc4)(c4ccc(Cl)cc4Cl)O3)cc2)CC1 (stereo not drawn) [ketoconazole]
- Inhibition of OH-vemurafenib formation [4]: significantly inhibited

Compound: CO[C@H]1/C=C/O[C@@]2(C)Oc3c(C)c(O)c4c(O)c(c(/C=N/N5CCN(C)CC5)c(O)c4c3C2=O)NC(=O)/C(C)=C\C=C\[C@H](C)[C@H](O)[C@@H](C)[C@@H](O)[C@@H](C)[C@H](OC(C)=O)[C@@H]1C [rifampicin]
- Increase in mRNA for Abcb1a in the small intestine (Abcb1a; [20]): 4.7 fold
- Change in mRNA for Abcb1b in the small intestine (Abcb1b; [20]): no change
- Change in mRNA for Abcg2 in the small intestine (Abcg2): no change

Compound: Nc1ccc(S(=O)(=O)Nc2ccnn2-c2ccccc2)cc1 [sulfaphenazole]
- Inhibition of OH-vemurafenib formation [4]: partial decrease; also recorded: small but statistically significant decrease

Compound: CCCS(=O)(=O)Nc1ccc(F)c(C(=O)c2c[nH]c3ncc(-c4ccc(Cl)cc4)cc23)c1F [vemurafenib, Vemurafenib]
- Metabolic stability [5]: highly stable
- Vmax for HLM relative to MLM ([6]; HLM vs MLM): approximately 10 fold
- S50 of OH-vemurafenib formation ([6]; HLM, Hill equation fit): 23.2 ± 0.8 µM
- Vmax of OH-vemurafenib formation ([6]; HLM, Hill equation fit): 4879 ± 108 peak area/min/mg
- S50 of OH-vemurafenib formation [7]: 23.8 ± 4.9 µM
- Vmax of OH-vemurafenib formation [7]: 467 ± 54 peak area/min/mg
- IC50 (CYP3A4 [8]): 14.9 µM
- Toxicity to DPX2 cells (DPX2 cells): highly toxic
- Decrease in Cmax and AUCall and increase in CL in huCYP3A4/3A7 PCN group relative to Cyp3aKO/Cyp3a13+/+ PCN group ([3]; vemurafenib 50 mg/kg oral after PCN for three days): not statistically significant
- AUC ([1]; male, huPXR/huCAR/huCYP3A4/3A7, mouse, whole blood, po, 50 mg/kg, RIF alone, Figure 5A): 90 ± 13 µg·h/mL
- AUC ([1]; male, huPXR/huCAR/huCYP3A4/3A7, mouse, whole blood, po, 50 mg/kg, huPXR/huCAR/huCYP3A4/3A7 mice, RIF pre-treatment, Figure 3A): 121 ± 18 µg·h/mL
- AUC ([1]; male, huPXR/huCAR/huCYP3A4/3A7, mouse, whole blood, po, 50 mg/kg, huPXR/huCAR/huCYP3A4/3A7 mice, vehicle pre-treatment, Figure 3A): 432 ± 169 µg·h/mL
- AUC ([1]; male, huPXR/huCAR/huCYP3A4/3A7, mouse, whole blood, po, 50 mg/kg, vehicle (CO) alone, Figure 5A): 391 ± 112 µg·h/mL
- AUC ([1]; male, huPXR/huCAR/huCYP3A4/3A7, mouse, whole blood, po, 50 mg/kg, vehicle (CO) then elacridar, Figure 5A): 684 ± 85 µg·h/mL
- Cmax ([1]; male, huPXR/huCAR/huCYP3A4/3A7, mouse, whole blood, po, 50 mg/kg, Cmax of vemurafenib, vehicle (CO) then elacridar, Figure 5A): 37800 ± 3500 ng/mL
- AUC [9]: 75 ± 33 µg·h/mL
- Change in small intestinal Abcb1a mRNA expression (Abcb1a; [21]): no change
- Change in small intestinal Abcb1b mRNA expression (Abcb1b; [21]): no change
- Change in small intestinal CYP3A4 mRNA expression (CYP3A4 [10]): no change
- Hepatic Cyp2b / Cyp2b10 protein (Western blot) (Cyp2b): weak induction
- Hepatic Cyp1a protein (Western blot) (Cyp1a): moderate induction
- AUC [11]: 1140 ± 242 µM·h
- Cmax [11]: 122 ± 19.7 µM
- Generation of OH-vemurafenib by recombinant CYP (CYP3A4 [12]; 60 μM compound, 400 pmol/mL enzyme, 15 min): formed
- Affinity for vemurafenib, CYP3A4 relative to CYP2C9 (CYP3A4 [12]; S50 CYP3A4 vs CYP2C9): 2 fold
- Generation of OH-vemurafenib by recombinant CYP (CYP2C9 [13]): formed
- Hepatic CYP3A4 protein (Western blot) (CYP3A4 [2]; huPXR/huCAR/huCYP3A4/3A7 mice): weak induction
- AUC0-24 necessary to effect regression of COLO205 xenografts (COLO205 xenografts): 300 µM·h
- Cmax [14]: 86 ± 32 µM
- Objective tumour response [15]: 48%
- Recovered radioactivity in the parental form ([16]; 0 – 48 hr period): ≥ 94%
- Recovered radioactivity in the parental form ([16]; 48 – 96 hr period): 55.5 ± 20.1%
- Time for 95% of the radioactive dose to be recovered [16]: 18 days
- Total dose recovered within the first 96 hours [16]: 68.5%
- Radioactive dose recovered in faeces ([16]; over 18 days): 94%
- Radioactive dose recovered in urine ([16]; over 18 days): 1%
- Decrease in AUC0-last of the CYP3A4-specific probe midazolam (CYP3A4 [17]): 39%
- Increase in AUC0-last of the CYP1A2 probe caffeine (CYP1A2): 160%
- Increase in AUC0-last of the CYP2D6 probe dextromethorphan (CYP2D6): 47%
- Aqueous solubility [18]: 0.01 to 10 µg/mL
- ABCB1 interaction (ABCB1): both an ABCB1 substrate and inhibitor
- Km at 0.15 h (CYP2C9 [19]): 20.4 ± 1.7 µM
- EC50 (PXR): 8.13 µM
- EMAX of PXR activation (PXR; DPX2 cells, 48 hours, fold change vs vehicle control): 8.54 fold

Compound: monohydroxy-vemurafenib [OH-vemurafenib]
- OH-vemurafenib as share of the total dose ([16]; 48 – 96 hr samples): 3.4%
- OH-vemurafenib share of recovered radioactivity ([16]; 48 – 96 hr samples): 13.7%
